Measurements as given in publication PMC4014984, “The tetrapeptide core of the carrier peptide Xentry is cell-penetrating: novel activatable forms of Xentry” (Scientific Reports, 2014).
Square brackets hold non-standard residues; d marks the D form. Peptide text beside a SMILES is read from it. * marks the point of attachment. FITC = O=C1OC2(c3ccc(O)cc3Oc3cc(O)ccc32)c2ccc(NC(=S)*)cc21

Legend:
MCF-7 cells = experiment: Uptake of activatable Xentry peptides with or without MMP-9 pretreatment; details: then 3 h with MCF-7 cells, fluorescence or confocal microscopy
HepG2 cells [1] = tested on: HepG2 cells
WM-266-4 cells = experiment: Cell-penetrating ability of Xentry peptides, fluorescence microscopy; details: for Uptake by WM-266-4 cells (in words): FITC-labelled L-isomeric peptides, 10 μM, 3 h, fixed cells; for Uptake by WM-266-4 cells: scored visually, labelled peptides incubated 3 h at 37°C, L-isomers in media without FCS, D-isomers with FCS
HepG2 cells [2] = experiment: Cell-penetrating ability of Xentry peptides, fluorescence/confocal microscopy; details: for Uptake by HepG2 cells (in words): FITC-labelled L-isomeric peptides, 10 μM, 3 h, fixed cells, fluorescence or confocal microscopy; for Uptake by HepG2 cells: scored visually, fluorescence microscopy, labelled peptides incubated 3 h at 37°C, L-isomers in media without FCS, D-isomers with FCS
BT549 cells = experiment: Cell-penetrating ability of Xentry peptides, fluorescence microscopy; details: for Uptake by BT549 cells (in words): FITC-labelled L-isomeric peptides, 10 μM, 3 h, fixed cells; for Uptake by BT-549cells: scored visually, labelled peptides incubated 3 h at 37°C, L-isomers in media without FCS
HepG2 cells [3] = experiment: Quantification of peptide uptake by overall cell fluorescence in wells (plate reader); details: HepG2, 10 μM, 3 h, media without FCS, plate reader ex 485 nm / em 520 nm, mean ± SD n = 4, Student's t-test
Procedure: HepG2 cells seeded into 96-well plates were incubated with L-isomeric (a), and D-isomeric (b) peptides at a final concentration of 10 μM in quadruplicate wells. The cells were incubated for 3 h, fixed with 4% formaldehyde, and fluorescence measured using a fluorescent plate reader at an excitation wavelength of 485 nm and emission wavelength of 520 nm. The fluorescence of cells was plotted as the mean ± SD (n = 4).
The cells were washed thrice with media without FCS, and peptides diluted in 100 μl of MEM media without FCS were added to the cells at a final concentration of 10 μM in quadruplicate wells. […] The fluorescence of cells was plotted as the mean ± SD (n = 4).

HepG2 cells [4] = tested on: HepG2 cells; remark: listed apart in the source

`CC(C)C[C@@H](N)C(=O)N[C@H](CS)C(=O)N[C@H](CC(C)C)C(=O)N[C@H](CCCNC(=N)N)C(=O)N1CCC[C@@H]1C(=O)N[C@@H](C(=O)NCC(=O)NCC(=O)NCC(=O)NCC(=O)N1CCC[C@H]1C(=O)N[C@@H](CC(C)C)C(=O)NCC(=O)N[C@@H](CC(C)C)C(=O)N[C@@H](C)C(=O)NCC(=O)NCC(=O)N[C@H](CC(C)C)C(=O)N[C@H](CS)C(=O)N[C@H](CC(C)C)C(=O)N[C@H](CCCNC(=N)N)C(=O)N1CCC[C@@H]1C(=O)N[C@@H](C(=O)NCC(=O)N[C@H](CCCCNC(=S)Nc1ccc2c(c1)C(=O)OC21c2ccc(O)cc2Oc2cc(O)ccc21)C(=O)O)C(C)C)C(C)C` [lclrpvGGGGPLGLAGGlclrpvgk-FITC] (H-[dL][dC][dL][dR][dP][dV]GGGGPLGLAGG[dL][dC][dL][dR][dP][dV]G[dK](FITC)-OH) was tested, and the “Uptake by MCF-7 cells after pretreatment with MMP-9” value (MCF-7 cells; 10 μM peptide incubated 3 h at 37°C with activated MMP-9 (0.4 μg/ml)) was “led to uptake of the digested peptide” and the “Uptake by MCF-7 cells, peptide not treated with MMP-9” value (MCF-7 cells; 10 μM peptide left untreated) was “not cell-permeable”.

“GRKKRRQRRRPPQGGRRRQQQQQQRRR [penetratin]” was tested, and the “Effect on viability of HepG2 cells” value (HepG2 cells [1]) was “no significant affect”.

IIIR was tested, and the “Uptake by WM-266-4 cells (in words)” value (WM-266-4 cells) was “poorly cell-permeable”, the “Uptake by WM-266-4 cells” value (WM-266-4 cells) was “-” and the “Uptake by HepG2 cells (in words)” value (HepG2 cells [2]) was “improved cell uptake”. The “Uptake by BT549 cells (in words)” value (BT549 cells) was “poorly cell-permeable”.

LCLE was tested, and the “Cell-penetrating ability compared with LCLR (overall cell fluorescence in wells)” value (HepG2 cells [3]) was “not significantly different”, the “Uptake by WM-266-4 cells (in words)” value (WM-266-4 cells) was “readily taken up” and the “Uptake by WM-266-4 cells” value (WM-266-4 cells) was “+++”. The “Uptake by HepG2 cells (in words)” value (HepG2 cells [2]) was “less well”, the “Uptake by HepG2 cells” value (HepG2 cells [2]) was “++” and the “Uptake by BT549 cells (in words)” value (BT549 cells) was “readily taken up”. The “Uptake by BT-549cells” value (BT549 cells) was “+++”.

LCLK was tested, and the “Cell-penetrating ability compared with LCLR (overall cell fluorescence in wells)” value (HepG2 cells [3]) was “reduced activity”, the “Uptake by WM-266-4 cells (in words)” value (WM-266-4 cells) was “taken up well” and the “Uptake by WM-266-4 cells” value (WM-266-4 cells) was “+++”. For the same compound, the “Uptake by HepG2 cells (in words)” value (HepG2 cells [2]) was “taken up well” and the “Uptake by BT549 cells (in words)” value (BT549 cells) was “taken up well”.

In the case of LCLN, the “Cell-penetrating ability compared with LCLR (overall cell fluorescence in wells)” value (HepG2 cells [3]) was “reduced activity”, the “Uptake by WM-266-4 cells” value (WM-266-4 cells) was “+” and the “Uptake by HepG2 cells” value (HepG2 cells [2]) was “+”. For the same compound, the “Uptake by BT-549cells” value (BT549 cells) was “+++”.

For LCLQ, the “Cell-penetrating ability compared with LCLR (overall cell fluorescence in wells)” value (HepG2 cells [3]) was “not significantly different”, the “Uptake by WM-266-4 cells” value (WM-266-4 cells) was “+” and the “Uptake by HepG2 cells (in words)” value (HepG2 cells [2]) was “did not improve uptake”. For the same compound, the “Uptake by HepG2 cells” value (HepG2 cells [2]) was “++”, the “Uptake by BT549 cells (in words)” value (BT549 cells) was “maintained cell-permeability” and the “Uptake by BT-549cells” value (BT549 cells) was “+++”.

With LCLRPVG the “Uptake by BT-549cells” value (BT549 cells) was “+++”.

LCLRPVGGGGGGGGGGGGGGGLCLRPVG was tested, and the “Uptake of linear multivalent forms of Xentry by HepG2 cells” value (HepG2 cells [4]) was “unable to penetrate”.

With LCLRPVGGGRRRQQQQQQRRR the “Effect on HepG2 viability relative to the other three CPPs” value (HepG2 cells [1]) was “least effect” and the “Effect on viability of HepG2 cells” value (HepG2 cells [1]) was “no significant affect”.

For LLLLR, the “Uptake by WM-266-4 cells (in words)” value (WM-266-4 cells) was “poorly cell-permeable”, the “Uptake by WM-266-4 cells” value (WM-266-4 cells) was “-” and the “Uptake by HepG2 cells (in words)” value (HepG2 cells [2]) was “poorly penetrated”. For the same compound, the “Uptake by HepG2 cells” value (HepG2 cells [2]) was “+”, the “Uptake by BT549 cells (in words)” value (BT549 cells) was “poorly cell-permeable” and the “Uptake by BT-549cells” value (BT549 cells) was “+”.

With LLLR the “Uptake by WM-266-4 cells (in words)” value (WM-266-4 cells) was “poorly cell-permeable”, the “Uptake by WM-266-4 cells” value (WM-266-4 cells) was “-” and the “Uptake by HepG2 cells (in words)” value (HepG2 cells [2]) was “poorly penetrated”. For the same compound, the “Uptake by HepG2 cells” value (HepG2 cells [2]) was “-”, the “Uptake by BT549 cells (in words)” value (BT549 cells) was “poorly cell-permeable” and the “Uptake by BT-549cells” value (BT549 cells) was “-”.

For LLLRR, the “Uptake by WM-266-4 cells (in words)” value (WM-266-4 cells) was “poorly cell-permeable”, the “Uptake by WM-266-4 cells” value (WM-266-4 cells) was “-” and the “Uptake by HepG2 cells (in words)” value (HepG2 cells [2]) was “failed to improve cell-penetrating ability”. The “Uptake by HepG2 cells” value (HepG2 cells [2]) was “-”, the “Uptake by BT549 cells (in words)” value (BT549 cells) was “poorly cell-permeable” and the “Uptake by BT-549cells” value (BT549 cells) was “-”.

VVVR was tested, and the “Uptake by WM-266-4 cells (in words)” value (WM-266-4 cells) was “poorly cell-permeable”, the “Uptake by WM-266-4 cells” value (WM-266-4 cells) was “-” and the “Uptake by HepG2 cells (in words)” value (HepG2 cells [2]) was “improved cell uptake”. For the same compound, the “Uptake by HepG2 cells” value (HepG2 cells [2]) was “++”, the “Uptake by BT549 cells (in words)” value (BT549 cells) was “poorly cell-permeable” and the “Uptake by BT-549cells” value (BT549 cells) was “-”.
